# From patent US11964988B2, “Fused heterocyclic compounds as RET kinase inhibitors” (ARRAY BIOPHARMA INC., priority 2018, dated 2024)
# Where a chain is given by its changes, count along the chain named.
# Columns and labels:
# RET kinase V804M = RET kinase V804M (Homo sapiens, UniProt P07949, V804M); experiment: RET Enzyme Assay (CisBio HTRF KinEASE-TK), V804M; type: biochemical; details: read-out: RET V804M Enz FRET IC50
# Description: (§2) The potency of compounds inhibiting several different RET kinase forms (Wild Type, V804M, G810R, & G810S) were determined using CisBio's HTRF® KinEASE™-TK assay technology. […] After a 1 hour incubation at 22° C., the extent of reaction was determined using a PerkinElmer EnVision multimode plate reader via HTRF dual wavelength detection, and the percent of control (POC) was calculated using a ratiometric emission factor. One hundred POC was determined using DMSO only samples (no compound present), and 0 POC was determined using pre-quenched control reactions.
# [1] = molecular target: T1, HEK-293 cells expressing a Kif5b-RET fusion protein (Homo sapiens, UniProt P07949); experiment: RET Cell Assay (phospho-RET Tyr1062); type: cell-based; details: HEK-293 Kif5b-RET, 1 hour incubation, phospho-RET normalized to GAPDH; read-out: KIF5B-RET pTYR1062 Cell IC50
# T1 construct: KIF5B (N-terminal portion incl. coiled-coil); expressed in transfected cells; host or cells: HEK-293; the other entry of the earlier key: KIF5B (P33176, Kinesin-1 heavy chain)
# T1 sequence (P07949 713-1063 limits assumed): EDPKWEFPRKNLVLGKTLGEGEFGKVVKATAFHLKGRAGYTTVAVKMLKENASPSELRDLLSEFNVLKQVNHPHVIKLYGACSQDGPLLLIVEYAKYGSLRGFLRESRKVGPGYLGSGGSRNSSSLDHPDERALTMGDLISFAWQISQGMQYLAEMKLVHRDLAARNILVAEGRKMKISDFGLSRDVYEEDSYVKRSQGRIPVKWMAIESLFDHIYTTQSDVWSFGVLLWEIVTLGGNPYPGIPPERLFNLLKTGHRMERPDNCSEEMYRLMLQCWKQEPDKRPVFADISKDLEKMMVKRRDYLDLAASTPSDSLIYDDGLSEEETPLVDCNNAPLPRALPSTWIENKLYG
# Procedure, shortened: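 Phospho-RET (Tyr1062) to GAPDH ratio read by in-cell fluorescent immunodetection after 1 hour compound exposure in DMEM, 0.5% DMSO. Cells: HEK-293 carrying Kif5b-RET fusion. POC data fit to a 4-parameter logistic curve, IC50 taken at 50 POC.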
# [2] = molecular target: T2, HEK-293 cells expressing a G810R mutant RET Kif5b-RET fusion protein (Homo sapiens, UniProt P07949, G810R); experiment: RET G810R Mutant Cell Assay (phospho-RET Tyr1062); type: cell-based; details: HEK-293 Kif5b-RET G810R, 1 hour incubation, phospho-RET normalized to GAPDH
# T2 construct: KIF5B (N-terminal portion incl. coiled-coil); expressed in transfected cells; host or cells: HEK-293; the other entry of the earlier key: KIF5B (P33176, Kinesin-1 heavy chain)
# T2 sequence (P07949 713-1063 G810R limits assumed): T1 sequence (P07949 713-1063 limits assumed) with G98R
# Procedure, shortened: (§1)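 Signals came from in-cell immunostaining of fixed, methanol-permeabilized HEK-293 fusion-expressing cells exposed 1 h to compound in DMEM with 0.5% DMSO.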
# [3] = molecular target: T3, HEK-293 cells expressing a G810S mutant RET Kif5b-RET fusion protein (Homo sapiens, UniProt P07949, G810S); experiment: RET G810S Mutant Cell Assay (phospho-RET Tyr1062); type: cell-based; details: HEK-293 Kif5b-RET G810S, 1 hour incubation, phospho-RET normalized to GAPDH
# T3 construct: KIF5B (N-terminal portion incl. coiled-coil); expressed in transfected cells; host or cells: HEK-293
# T3 sequence (P07949 713-1063 G810S limits assumed): T1 sequence (P07949 713-1063 limits assumed) with G98S
# Procedure, shortened: as §1
# RET kinase Wild Type = RET kinase Wild Type (Homo sapiens, UniProt P07949); experiment: biochemical;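 note: HTRF kinase activity assay on RET enzyme, 1 h reaction at 22 °C, dual-wavelength readout as percent of control, DMSO-only wells as 100%, pre-quenched reactions as 0%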
# RET kinase Wild Type, sequence (P07949 29-1114): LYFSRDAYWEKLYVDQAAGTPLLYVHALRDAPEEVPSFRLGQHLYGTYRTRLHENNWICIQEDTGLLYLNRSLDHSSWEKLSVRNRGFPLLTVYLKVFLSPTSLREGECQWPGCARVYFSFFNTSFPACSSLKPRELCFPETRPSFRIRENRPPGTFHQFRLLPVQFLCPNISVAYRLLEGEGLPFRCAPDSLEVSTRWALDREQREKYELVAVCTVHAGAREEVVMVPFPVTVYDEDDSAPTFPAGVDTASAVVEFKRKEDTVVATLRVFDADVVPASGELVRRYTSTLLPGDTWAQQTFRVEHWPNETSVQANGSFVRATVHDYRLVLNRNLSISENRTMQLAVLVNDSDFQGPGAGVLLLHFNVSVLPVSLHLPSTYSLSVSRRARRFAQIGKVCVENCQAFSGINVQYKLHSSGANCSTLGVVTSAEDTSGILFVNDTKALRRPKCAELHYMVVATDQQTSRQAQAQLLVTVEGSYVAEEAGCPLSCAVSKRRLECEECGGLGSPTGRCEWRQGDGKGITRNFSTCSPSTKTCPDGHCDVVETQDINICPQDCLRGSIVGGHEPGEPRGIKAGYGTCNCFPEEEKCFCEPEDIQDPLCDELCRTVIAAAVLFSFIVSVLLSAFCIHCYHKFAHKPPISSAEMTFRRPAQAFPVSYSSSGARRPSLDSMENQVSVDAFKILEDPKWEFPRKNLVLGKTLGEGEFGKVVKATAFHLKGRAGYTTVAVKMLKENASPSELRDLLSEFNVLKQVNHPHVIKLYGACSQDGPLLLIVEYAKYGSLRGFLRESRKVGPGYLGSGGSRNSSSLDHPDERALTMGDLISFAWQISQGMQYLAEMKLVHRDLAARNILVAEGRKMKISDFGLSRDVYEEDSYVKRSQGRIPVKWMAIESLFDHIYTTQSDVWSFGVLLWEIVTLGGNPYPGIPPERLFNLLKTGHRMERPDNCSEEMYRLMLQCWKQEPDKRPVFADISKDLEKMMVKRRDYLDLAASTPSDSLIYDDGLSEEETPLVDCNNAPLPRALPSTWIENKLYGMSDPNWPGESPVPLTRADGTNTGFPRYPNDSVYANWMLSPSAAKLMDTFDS
# Description: as §2
# G810R mutant RET kinase = G810R mutant RET kinase (Homo sapiens, UniProt P07949, G810R); experiment: biochemical;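 note: HTRF KinEASE-TK enzymatic assay with 1 nM recombinant RET G810R, 1 h at 22 °C, dual-wavelength ratiometric readout, 100% control without compound, 0% from pre-quenched reactions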
# G810R mutant RET kinase, sequence (P07949 29-1114 G810R): as the sequence (P07949 29-1114) above, with G782R counted along it
# G810S mutant RET kinase = G810S mutant RET kinase (Homo sapiens, UniProt P07949, G810S); experiment: biochemical;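 note: HTRF KinEASE-TK kinase assay with recombinant enzyme, 1 h at 22 °C, dual-wavelength ratiometric read-out, percent of control (DMSO-only = 100, pre-quenched reaction = 0)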
# G810S mutant RET kinase, sequence (P07949 29-1114 G810S): as the sequence (P07949 29-1114) above, with G782S counted along it
# RET kinase V804M, sequence (P07949 29-1114 V804M): as the sequence (P07949 29-1114) above, with V776M counted along it
Structure (SMILES),IC50 (RET kinase V804M),IC50 [1],IC50 [2],IC50 [3],IC50 (RET kinase Wild Type),IC50 (G810R mutant RET kinase),IC50 (G810S mutant RET kinase)
"CC(C)n1c2c(c3c(N)ncnc31)-c1cc3ccc(C(=O)NC4CC4)cc3n1CCC2 [Example 87, 1-Amino-N-cyclopropyl-5-isopropyl-5,6,7,8-tetrahydropyrimido[5″,4″:4′,5′]pyrrolo[3′,2′:3,4]azepino[1,2-a]indole-11-carboxamide]",5.78 µM,0.032 µM,0.089 µM,0.071 µM,0.047 µM,0.202 µM,0.204 µM
"CC(C)n1c2c(c3c(N)ncnc31)-c1noc(C3CC3)c1C(=O)NC2 [Example 19, 11-amino-3-cyclopropyl-7-isopropyl-6,7-dihydroisoxazolo[4,3-c]pyrimido[5′,4′:4,5]pyrrolo[3,2-e]azepin-4(5H)-one 2,2,2-trifluoroacetate]",0.202 µM,0.053 µM,0.262 µM,0.184 µM,0.045 µM,0.103 µM,0.215 µM
"CC(=O)N1Cc2c(noc2C2CC2)-c2c(n(C(C)C)c3ncnc(N)c23)C1 [Example 36, 1-(11-amino-3-cyclopropyl-7-isopropyl-6,7-dihydroisoxazolo[4,3-c]pyrimido[5′,4′:4,5]pyrrolo[3,2-e]azepin-5(4H)-yl)ethan-1-one 2,2,2-trifluoroacetate]",0.235 µM,0.053 µM,0.144 µM,0.255 µM,0.058 µM,0.13 µM,0.217 µM
"CC(C)n1c2c(c3c(N)ncnc31)-c1noc(C3CC3)c1C(=O)N(C)C2 [Example 20, 11-amino-3-cyclopropyl-7-isopropyl-5-methyl-6,7-dihydroisoxazolo[4,3-c]pyrimido[5′,4′:4,5]pyrrolo[3,2-e]azepin-4(5H)-one]",0.254 µM,0.028 µM,0.16 µM,0.111 µM,0.053 µM,0.135 µM,0.123 µM
"CC(C)n1c2c(c3c(N)ncnc31)-c1noc(C3CC3)c1[C@@H](O)[C@@H](C)C2 (relative stereo) [Example 63, (Cis)-11-amino-3-cyclopropyl-7-isopropyl-5-methyl-4,5,6,7-tetrahydroisoxazolo[4″,3″:6′,7′]cyclohepta[1′,2′:4,5]pyrrolo[2,3-d]pyrimidin-4-ol]",0.211 µM,0.072 µM,0.439 µM,0.352 µM,0.061 µM,0.118 µM,0.108 µM
"CC(C)n1c2c(c3c(N)ncnc31)-c1cc3ccc(C(=O)NC4(C)CC4)cc3n1CCC2 [Example 97, 1-amino-5-isopropyl-N-(1-methylcyclopropyl)-5,6,7,8-tetrahydropyrimido[5″,4″:4′,5′]pyrrolo[3′,2′: 3,4]azepino[1,2-a]indole-11-carboxamide]",4.46 µM,0.026 µM,0.047 µM,0.047 µM,0.073 µM,0.478 µM,0.457 µM
"CC(C)n1c2c(c3c(N)ncnc31)-c1noc(C3CC3)c1[C@H](O)[C@@H](C)C2 (single isomer, unassigned) [Example 65]",0.163 µM,0.045 µM,0.621 µM,0.29 µM,0.043 µM,0.064 µM,0.133 µM

# The remaining lines, values ahead:
IC50 (RET kinase V804M),IC50 [1],IC50 [2],IC50 [3],IC50 (RET kinase Wild Type),IC50 (G810R mutant RET kinase),IC50 (G810S mutant RET kinase),Structure (SMILES)
0.021 µM,0.018 µM,0.046 µM,0.065 µM,0.008 µM,0.023 µM,0.019 µM,"Nc1ncnc2c1c1c(n2C2CCC(O)C2)CCC(O)c2c-1noc2C1CC1 (stereo not shown) [Example 129, 11-Amino-3-cyclopropyl-7-(3-hydroxycyclopentyl)-4,5,6,7-tetrahydroisoxazolo[4″,3″:6′,7′]cyclohepta[1′,2′:4,5]pyrrolo[2,3-d]pyrimidin-4-ol]"
0.032 µM,0.021 µM,0.056 µM,0.09 µM,0.014 µM,0.074 µM,0.094 µM,"C[C@@H](n1c2c(c3c(N)ncnc31)-c1noc(C3CC3)c1[C@H](O)CC2)C(F)(F)F (single isomer, unassigned) [Example 147, 2,2,2-trifluoroacetate]"
0.015 µM,0.004 µM,0.04 µM,0.018 µM,0.012 µM,0.084 µM,0.046 µM,"CC1(n2c3c(c4c(N)ncnc42)-c2noc(C4CC4)c2[C@H](O)CC3)CC1 [Example 150, (R)-11-Amino-3-cyclopropyl-7-(1-methylcyclopropyl)-4,5,6,7-tetrahydroisoxazolo[4″,3″:6′,7′]cyclohepta[1′,2′:4,5]pyrrolo[2,3-d]pyrimidin-4-ol]"
0.08 µM,0.019 µM,0.044 µM,0.033 µM,0.024 µM,0.089 µM,0.049 µM,"Nc1ncnc2c1c1c(n2C2CCCC2)CCC(O)c2c-1noc2C1CC1 (single isomer, unassigned) [Example 124]"
0.027 µM,0.014 µM,0.113 µM,0.057 µM,0.009 µM,0.086 µM,0.055 µM,"CO[C@@H]1CCc2c(c3c(N)ncnc3n2C2(C)CC2)-c2noc(C3CC3)c21 [Example 151, (R)-3-Cyclopropyl-4-methoxy-7-(1-methylcyclopropyl)-4,5,6,7-tetrahydroisoxazolo[4″,3″:6′,7]cyclohepta[1′,2′:4,5]pyrrolo[2,3-d]pyrimidin-11-amine]"
0.087 µM,0.063 µM,0.098 µM,0.068 µM,0.026 µM,0.043 µM,0.116 µM,"C[C@H](n1c2c(c3c(N)ncnc31)-c1noc(C3CC3)c1[C@@H](O)CC2)C(F)(F)F (single isomer, unassigned) [Example 146, 2,2,2-trifluoroacetate]"
0.02 µM,0.015 µM,0.035 µM,0.033 µM,0.01 µM,0.074 µM,0.024 µM,"Nc1ncnc2c1c1c(n2C2CCCC2)CCC(O)c2c-1noc2C1CC1 (stereo not shown) [Example 120, 11-Amino-7-cyclopentyl-3-cyclopropyl-4,5,6,7-tetrahydroisoxazolo[4″,3″:6′,7′]cyclohepta[1′,2′:4,5]pyrrolo[2,3-d]pyrimidin-4-ol]"
0.019 µM,0.007 µM,0.016 µM,0.016 µM,0.011 µM,0.041 µM,0.019 µM,"Nc1ncnc2c1c1c(n2C2CCCC2)CC[C@@H](O)c2c-1noc2C1CC1 (single isomer, unassigned) [Example 125]"
0.041 µM,0.014 µM,0.03 µM,0.06 µM,0.014 µM,0.097 µM,0.018 µM,"CC(n1c2c(c3c(N)ncnc31)-c1noc(C3CC3)c1C(O)CC2)C(F)(F)F (stereo not shown) [Example 131, 11-Amino-3-cyclopropyl-7-(1,1,1-trifluoropropan-2-yl)-4,5,6,7-tetrahydroisoxazolo[4″,3″:6′,7′]cyclohepta[1′,2′:4,5]pyrrolo[2,3-d]pyrimidin-4-ol]"
